For this assay, the system named is M. tuberculosis H37Rv growth inhibition. As to the kind of experiment: Confirmatory growth inhibition assay against Mycobacterium tuberculosis H37Rv, potency (AID 1949).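 Note: bacteria grown 7 days with compound before Alamar blue readout.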

The structures appear in SMILES notation. ≈ marks a conversion by molar mass, not a printed value. Inconclusive results are not listed. Calls of active or inactive are those of the source. The rule behind the calls is not given here.

Consider `COC(=O)COc1ccc(/C=C(/C#N)c2nc3ccccc3[nH]2)cc1`, for which the 50% inhibitory concentration (IC50) was 0.67 µg/mL (≈ 2.01 µM).
As for `Cc1ccc2oc(-c3cc(NC(=O)Cc4ccccc4)ccc3Cl)nc2c1`, the figure is below 0.1 µg/mL; as for `CCn1cc(C(=O)O)c(=O)c2cc(F)c(N3CCN(S(=O)(=O)c4ccc(NC(C)=O)cc4)CC3)cc21`, 36.6 µg/mL (≈ 70.8 µM).
The value for `O=C(NC12CC3CC(CC(C3)C1)C2)N1CCN(c2cccc(Cl)c2)CC1` was 8.14 µg/mL (≈ 21.8 µM); that for `O=C1c2ccccc2C2=Nc3cc(Cl)ccc3OC12O` (configuration not stated) was 5.5 µg/mL (≈ 19.3 µM); that for `Cc1c(Cl)ccc2c(=O)c(C(=O)O)c[nH]c12` was 29.6 µg/mL (≈ 125 µM).
As for `CC(C)(C)c1ccc(C(=O)NC(=S)NCc2cccnc2)cc1`, the figure is 2.47 µg/mL (≈ 7.54 µM); as for `O=C(NC(=S)N1CCCC1)c1ccc(-c2ccccc2)cc1`, 1.43 µg/mL (≈ 4.61 µM); as for `Cc1cc2ncn(CCOc3ccc(Cl)cc3)c2cc1C`, 1.12 µg/mL (≈ 3.72 µM).
Consider `CCN1CCN(c2ccc(NC(=O)c3cc(Br)cc(C)c3OC)cc2Cl)CC1`, for which the IC50 is 4.8 µg/mL (≈ 10.3 µM).
The value for `COc1ccc(CCNc2nc(N3CCCC3)nc(N3CCCC3)n2)cc1OC` was 5.35 µg/mL (≈ 13.4 µM); that for `CC1=CC(C)(C)N2C(=O)C3(Nc4ccccc4S3)c3cc(C)cc1c32` (configuration not stated) was 16.9 µg/mL (≈ 48.6 µM); that for `O=C(CCN1CCCCCC1)c1ccc(Cl)cc1` was 22.7 µg/mL (≈ 85.5 µM).
As for `Cc1ccc(-c2noc(CNc3cccc(Cl)c3)n2)cc1`, the figure is 13.9 µg/mL (≈ 46.4 µM); as for `COc1ccc(CCCC(=O)Nc2ccc(Cl)c(Cl)c2)c(C)c1`, 8.81 µg/mL (≈ 25 µM); as for `Cc1ccc(Sc2ccc(C=O)o2)cc1`, 2.15 µg/mL (≈ 9.85 µM).
As for `O=C(CC(O)(C(F)(F)F)C(F)(F)F)Nc1cccc(C(F)(F)F)c1`, the figure is 3.59 µg/mL (≈ 9.72 µM); as for `CCCCn1c(NCc2ccc(N(CC)CC)cc2)nc2ccccc21`, 11.2 µg/mL (≈ 32 µM); as for `Cc1cccc(COc2ccc(/C=C/[N+](=O)[O-])cc2)c1`, 21.4 µg/mL (≈ 79.5 µM).
Turning to `C=C(C)Cn1c(=S)[nH]c2sc3c(c2c1=O)CCc1ccccc1-3`, the IC50 is > 50 µg/mL (inactive).
As for `CCOC(=O)c1c(-c2ccc(C)o2)csc1NC(=S)NC(=O)N(C)C`, the figure is 1.85 µg/mL (≈ 4.85 µM); as for `COCCNS(=O)(=O)c1ccc(-c2ccc(C)cc2)cc1`, 0.49 µg/mL (≈ 1.6 µM); as for `O=C(NC1CC1c1ccccc1)C12CC3CC(CC(C3)C1)C2` (configuration not stated), 14.6 µg/mL (≈ 49.5 µM).
For `CSc1ncnc2c1ncn2CC(=O)Nc1ccc(C)c(C)c1`, the IC50 was below 0.1 µg/mL.
Take `Cc1cc(C(C)(C)C)ccc1OCCCCn1ccnc1`: the IC50 was 1.4 µg/mL (≈ 4.89 µM).
As for `CCn1c2ccccc2c2nnc(SCCCn3c(=O)[nH]c4ccccc43)nc21`, the figure is > 50 µg/mL (inactive); as for `COc1cccc(NC(=S)NC(=O)CC(C)(C)C)c1`, 13.4 µg/mL (≈ 47.9 µM).
The value for `Nc1nnc(Sc2ccc([N+](=O)[O-])c3ncccc23)s1` was 3.47 µg/mL (≈ 11.4 µM); that for `NC(CC(=O)c1ccc(Cl)cc1Cl)C(Cl)(Cl)Cl` (configuration not stated) was 0.27 µg/mL (≈ 0.805 µM).
As for `O=C(Nc1ccc(Nc2ccccc2)cc1)C(Cl)Cl`, the figure is 6.79 µg/mL (≈ 23 µM); as for `CCOc1cccc(N2C(=O)CC(S/C(N)=N/N=C(\C)c3ccc(Cl)s3)C2=O)c1` (configuration not stated), 2.62 µg/mL (≈ 5.81 µM).
For `Cc1ccc(CNC(=S)Nc2ccc(N(C)C)cc2)cc1`, the IC50 was 5.34 µg/mL (≈ 17.8 µM).
As for `CCN(CC)c1ccc(NC(=O)c2cnccn2)cc1`, the figure is 2.37 µg/mL (≈ 8.77 µM); as for `CCOC(=O)c1cc(CC)sc1NC(=O)c1cc2ccccc2oc1=O`, 0.38 µg/mL (≈ 1.02 µM); as for `Oc1ccc(Cl)cc1C1=NNC(c2ccccc2Cl)C1` (configuration not stated), 0.65 µg/mL (≈ 2.12 µM).
As for `Cc1ccc(-n2c(=O)oc3ccc(Cl)cc3c2=O)cc1`, the figure is > 50 µg/mL (inactive); as for `Cc1cc(OCCn2ccnc2)ccc1Cl`, 2.77 µg/mL (≈ 11.7 µM).
The value for `O=C(CCN1CCC(c2ccccc2)C1)c1ccccc1` (configuration not stated) was 12.5 µg/mL (≈ 44.6 µM); that for `Cc1ccc(S(=O)(=O)NC(=O)Oc2cccc3cccnc23)cc1` was 3.32 µg/mL (≈ 9.7 µM); that for `CCOC(=O)CSC1=C(C#N)C(c2ccccc2[N+](=O)[O-])C(C(C)=O)=C(C)N1` (configuration not stated) was 1.41 µg/mL (≈ 3.51 µM).
In the case of `CC(=O)Oc1ccccc1C(=O)Nc1ccc(Br)cc1Cl`, the IC50 was 4.23 µg/mL (≈ 11.5 µM).
Take `O=C(Nc1ccc(Cl)cc1)NC1CC2CCC1C2` (configuration not stated): the IC50 is 0.72 µg/mL (≈ 2.72 µM).

(Values after PubChem BioAssay AID1949 (Southern Research Institute, 2009).)
